Key:
[1] = system: hexokinase bound to the mitochondrial fraction of the VX2 tumor; assay: Hexokinase activity of the VX2 tumor mitochondrial fraction; assay type: biochemical, rabbit; conditions: 5 mM, VX2 tumor mitochondria
Experimental: The freshly isolated liver or VX2 tumor tissues (15-20 g wet weight) was rinsed in 3 volumes of H-medium (210 mM D-mannitol, 70 mM sucrose, 2 mM Hepes, and 0.05% bovine albumin, pH 7.4) at 4° C. and minced with a razor blade as finely as possible. A 30% (V/V) suspension was made using ice-cold H-medium in a Potter-Elvehjem glass homogenizer (55 ml capacity), and homogenization was achieved by applying 4 complete up and down strokes through the suspension with a rotating (˜400 rpm), serrated, teflon pestle attached to a motor. To remove cell debris and nuclei, the resultant homogenate was diluted to twice the initial volume and centrifuged at 630×g for 8 minutes at 4° C. in a Sorvall RC-2B centrifuge using a GSA rotor. The supernatant was removed and then centrifuged at 6,800 g for 15 min under the same conditions. The resultant supernatant was saved and referred to here as the cytosolic faction. The pellet was resuspended in the initial volume of H-medium and centrifuged twice at 9,800×g for 15 min at 4° C. The washed pellet represents the mitochondrial fraction.
The assay coupled the glucose-6-phosphate formed in the hexokinase reaction to the glucose-6-phosphate dehydrogenase reaction. Here, NADP+, oxidizes glucose-6-phosphate to a g-lactone while becoming reduced to NADPH, thus allowing the formation of the latter to be monitored spectrophotometrically at 340 nm. […]

VX2 tumor slices = assay: Glycolysis (lactic acid formation) in VX2 tumor slices; assay type: cell-based, rabbit
Experimental: Glycolysis was assayed by monitoring the formation of lactic acid following the addition of glucose to a medium containing VX2 tumor slices. Specifically, freshly excised tumors were washed 3 times at 4° C. in 20 ml Chance Hess Medium containing 6.2 mM KCl, 154 mM NaCl, and 11 mM NaPi, pH 7.4. Slices, 1 g each, were then prior incubated for 30 min in a Lab-Line incubator-shaker at 37° C. in 2 ml of the same medium while shaking at 50 rpm. Glucose was then added to give a final concentration of 6 mM, after which the incubation/shaking process was continued with 0.2 ml samples being removed every 30 min for up to 2 h. These samples were subjected to centrifugation at 14,000 rpm in an Eppendorf Centrifuge (Model 5415C). Then, aliquots of the supernatant, 0.01 ml, were removed from each sample, diluted with 0.03 ml of water and subjected to lactic acid determination using the kit supplied by Sigma. The latter contains, in addition to lactic dehydrogenase and NAD+, hydrazine, and glycine buffer, pH 9.2. The mixture was incubated for 30 min at 25° C. after which the absorbance due to formation of NADH was determined at 340 nm using a Gilford Model 260 spectrophotometer. To assess the elevation of the glycolytic activity of the VX2 tumor over that of liver tissue, parallel studies were always carried out in an identical manner with 1 g liver slices derived from the host liver. Finally, in those cases where agents were tested for their capacity to inhibit glycolysis, these were introduced into the system at the prior incubation step with all subsequent steps being run in parallel with those described above for the VX2 tumor or liver alone.
The screen included the following 9 compounds: 2-deoxyglucose (2DOG), 2-fluoro-2-deoxyglucose, 6-fluoro-6-deoxyglucose, 3-O-methyl glucose, 5-thio-D-glucose-6-phosphate, L-glucose, D-xylose, D-lyxose, and 3-bromopyruvic acid (3BrPA). The screen was conducted by incubating VX2 tumor slices in a medium containing 6 mM glucose with 6 mM of each of these agents at 37° C. for 5 h. The use of 6 mM glucose in the medium was used to mimic the maximal amount of glucose that might be in the blood in a real in vivo situation.
With the above preliminary data at hand, only two of the 9 compounds screened were studied in more detail. One was 2DOG because under certain conditions it is known to inhibit glycolysis when it is phosphorylated by hexokinase to 2DOG-6-P which cannot be further metabolized. The other compound tested in more detail was 3BrPA because of its effectiveness as a glycolytic inhibitor in the preliminary screen.

Compound: O=C(O)C(=O)CBr [3BrPA, 3-bromopyruvic acid]
- inhibition of the hexokinase reaction [1]: inhibits completely
- inhibition of VX2 tumor glycolysis in the limited screen (VX2 tumor slices; 6 mM agent, 6 mM glucose, 37° C., 5 h): almost completely inhibited
- IC50 (VX2 tumor slices; Oryctolagus cuniculus, 0.5 h, read-out: half maximal inhibition of glycolysis): 2400 µM
- concentration for maximal or complete inhibition of glycolysis (VX2 tumor slices; VX2 tumor slices, agent prior incubated 30 min at 37° C.): about 15 mM

From patent US8119116B2, “Therapeutics for cancer using 3-bromopyruvate and other selective inhibitors of ATP production” (John Hopkins University School of Medicine, priority 2001, dated 2012)
